According to PMC5488423, “Prevention of dendritic and synaptic deficits and cognitive impairment with a neurotrophic compound” (Alzheimer's Research & Therapy, 2017):
Residues, ends and D or L forms follow the SMILES beside them.

Experiments:
3 × Tg-AD mice = assay: Side effects and safety during chronic dietary treatment; format: in vivo, mouse; conditions: 60 nmol P021/g feed in diet
Description: At approximately 3 months of age, the animals were divided into three groups: one group of 3 × Tg-AD-P021 (n = 32) treated with 60 nmol P021/g feed in the diet; a second group of 3 × Tg-AD-vh (n = 35) treated with the same diet but without P021; and a third group of WT (n = 41) treated with the same diet but without P021. P021 was formulated by Research Diets (New Brunswick, NJ, USA). Food consumption was recorded every 2 weeks and body weight every month. The average mouse food consumption was ~2.7 g feed/day.

[1] = design: method as in PMID 25046994; conditions: over 30 min; cited from earlier work
[2] = design: method as in PMID 25046994; conditions: over 120 min; cited from earlier work
[3] = design: method as in PMID 25046994; conditions: cited from earlier work
[4] = design: method as in PMID 25046994; conditions: cited from earlier work; remark: listed apart in the source

CC(=O)N[C@@H](CC(=O)O)C(=O)NCC(=O)NCC(=O)N[C@@H](CC(C)C)C(=O)NC12CC3CC(C1)CC(C(N)=O)(C3)C2 [Peptide P021] (HELM PEPTIDE1{[ac].D.G.G.L.[NC(=O)C12CC3CC(CC(N[*:1])(C3)C1)C2]}$$$$V2.0)
side effects or safety issues (3 × Tg-AD mice; preclinical study of almost 2 years): did not show any severe side effects or safety issues | weight loss, tumors, or signs of pain (3 × Tg-AD mice; treatment for around 18 months): did not show any weight loss, tumors, or signs of pain | stability in artificial gastric juice [1]: > 95% | stability in intestinal fluid [2]: ~ 100% | plasma stability [3]: > 3 h | blood–brain barrier permeability [4]: blood–brain barrier permeable
